In US6017962A, “Method of depletion of methionine in plasma and solid tumors and uses thereof” (Board of Regents, The University of Texas System, priority 1997, dated 2000):
Read-outs that look alike come from different tables or passages of the source.

Tests used:
[1] = system: H-1944; assay: Cytotoxicity of BCNU; assay type: cell-based; details: Homo sapiens, 1 h BCNU, 4 days
Experimental: (§1) The cytotoxicity of BCNU on cultured cells in MET^+ HCY^+ and MET^- HCY^+ was measured by a modification of the method of Branch et. al. (1993) as follows: methionine-dependent cells were seeded and cultured in MET^+ HCY^- in 35 mm petri dishes until they were nearly confluent. The cells were then transferred in MET^- HCY^+ and cultured for an additional 4 to 6 days at which time cell numbers were reduced due to cell death and inhibition of mitosis. Dead cells were removed and medium was replaced on a daily basis. Following this period in MET^- HCY^+ medium, remaining live cells were washed with PBS and then treated with various concentrations of BCNU in PBS for 1 hour at 37° C. while they were still attached. Subsequently, the BCNU was removed, replaced with MET^+ HCY^- medium and cultures were incubated for an additional 4 days at 37° C. in 6% CO2. At that time cells were trypsinized and counted using a Coulter-Counter (Coulter Electronics, Hialeah Fla.). The concentration of the drug that halves the growth rate of the tumor cells (IC50), was determined from plots of BCNU concentrations versus the percent change in cell numbers as compared to untreated controls within a four day interval from treatment (Jackson, 1992). The IC50 of BCNU on methionine-dependent cells cultured in MET^+ HCY^- or methionine independent cells cultured in either media was also determined by the same method.

[2] = system: D-341; assay: Cytotoxicity of BCNU; assay type: cell-based; details: Homo sapiens, 1 h BCNU, 4 days
Experimental: as §1

[3] = system: U-138; assay: Cytotoxicity of BCNU; assay type: cell-based; details: Homo sapiens, 1 h BCNU, 4 days
Experimental: as §1

[4] = system: Daoy; assay: Cytotoxicity of BCNU; assay type: cell-based; details: Homo sapiens
Experimental: as §1

[5] = system: U-87; assay: Cytotoxicity of BCNU; assay type: cell-based; details: Homo sapiens, U-87 MG, U-87 (mer^-), 1 h BCNU, 4 days
Experimental: as §1

[6] = system: NIH-3T3; assay: Cytotoxicity of BCNU; assay type: cell-based; details: Mus musculus, NIH3T3, 1 h BCNU, 4 days
Experimental: as §1

[7] = system: H-1623; assay: Cytotoxicity of BCNU; assay type: cell-based; details: Homo sapiens, 1 h BCNU, 4 days
Experimental: as §1

[8] = system: SW-40; assay: Cytotoxicity of BCNU; assay type: cell-based, human; details: for IC50: Homo sapiens, SW-40 (mer^-), 1 h BCNU, 4 days
Experimental: as §1

[9] = system: MET-independent or mer^- tumor cell lines and normal cells; assay: Cytotoxicity of BCNU (summary); assay type: cell-based; details: MET^- HCY^+ versus MET^+ HCY^-
Experimental: as §1

[10] = system: Methionine-dependent, mer^+ tumor cells; assay: Cytotoxicity of BCNU (summary); assay type: cell-based; details: Homo sapiens
Experimental: as §1

[11] = system: MGMT positive tumors; details: prior depletion of MGMT; Dolan et al., 1993; Schold et al., 1996; cited from earlier work
[12] = system: MGMT; details: Daoy; 48 hrs from repletion following 10 days in HCY
Experimental: Detaching cells ascertained to be dead by trypan blue exclusion were removed by changing the medium every 48 hours. Cells were then either trypsinized and reseeded in the same medium or washed with PBS and supplied with the methionine-HCY^+ medium. Due to extensive death in this medium, it was necessary to remove detaching dead cells on a daily basis. Cells from both media were harvested at time intervals indicated and used to measure cell cycle status and MGMT activity. Cells from either cultures (5×10^7) were also harvested, washed with PBS and immediately frozen as a source of protein, DNA and RNA. All cells collected were live (>95%) as determined by trypan blue exclusion.
The [^3 H]DNA substrate for measurements of MGMT activity was synthesized as follows: One mCi ethanolic solution of N-[^3 H]methyl-N-nitrosourea (MNU) having specific activity 18.8 Ci/mmol (Amersham) was concentrated to 0.2 ml with a N2 stream and mixed with 1 ml of DNA solution (5 mg) in 0.02 M 2-amino-2-methyl-1,3-propanediol at pH 10. […]
The [^3 H]DNA contained 29.8 μCi of radioactivity (alkylation efficiency 3%) which was distributed as 3-methyladenine 3.5%, 7-MeG 79.6%, 1-methyladenine 0.6%, O^6 -MeG 9.0% and other adducts 7.3%. The specific activities of 7-MeG and O^6 -MeG were calculated to be 15.8±0.8 and 16.5±0.5 Ci/mmol respectively. […]

[13] = system: Daoy; details: 48 hrs from repletion following 10 days in HCY
[14] = Plasma methionine and thiols after diet, methionine precursor and methioninase; assay type: in vivo, nude mice; details: met^- hcy^- chl^- diet, 8 h after precursor 50 mg/kg ip, no methioninase
Experimental: The methionine peak is marked with an asterik.
FIG. 7A: homocysteine thiolactone; FIG. 7B: homocysteine thiolactone+methioninase; FIG. 7C: homocystine; and FIG. 7D: homocystin+methioninase. All animals were killed 6 hours after the injection of the methionine precursor.
^1 Levels of total thiols in circulation 8 hours after injection (ip)
of met precursor and 6 hours after treatment with methioninase. Mean of 3
determinations ± SD. MET precursor was 50 mg/kg; methioninase
(abbreviated METH.) was 1000k U/kg.

[15] = system: MGMT; details: some tumor cell lines; von Wronski et al., 1994; cited from earlier work
[16] = MET^+ HCY^- culture, read-out: IC50 (MET)
[17] = MET^- HCY^+ culture, read-out: IC50 (HCY)

## O=NN(CCCl)C(=O)NCCCl [BCNU, 1,3-bis (2-chloroethyl)-1-nitrosourea]
[1]; NCI-H1944, MET^+ HCY^- culture, read-out: IC50 (MET)
  IC50: 65 µM
[1]; NCI-H1944, MET^- HCY^+ culture, read-out: IC50 (HCY)
  IC50: 10 µM
[2]; D341, MET^+ HCY^- culture, read-out: IC50 (MET)
  IC50: 65 µM
[2]; D341, MET^- HCY^+ culture, read-out: IC50 (HCY)
  IC50: 10 µM
[3]; [16]
  IC50: 50 µM
[3]; [17]
  IC50: 10 µM
[4]; MET^+ HCY^- culture, 1 h BCNU, counted after 4 days, read-out: IC50 (MET)
  IC50: 45 µM
[4]; cultured in MET^- HCY^+ 4 days before 1 h BCNU, read-out: IC50 (HCY)
  IC50: ~5 µM
[5]; [16]
  IC50: 15 µM
[5]; [17]
  IC50: 15 µM
[6]; NIH-3T3, control mer+, methionine independent, MET^+ HCY^- culture, read-out: IC50 (MET)
  IC50: 35 µM
[6]; NIH-3T3, MET^- HCY^+ culture, read-out: IC50 (HCY)
  IC50: 40 µM
[7]; NCI-H1623, MET^+ HCY^- culture, read-out: IC50 (MET)
  IC50: 90 µM
[7]; NCI-H1623, MET^- HCY^+ culture, read-out: IC50 (HCY)
  IC50: 10 µM
[8]; [16]
  IC50: 10 µM
[8]; [17]
  IC50: 15 µM
[8]; SWB-40, mer^-, methionine-dependent
  resistance to BCNU upon methionine depletion: not affected
[9]
  sensitivity to BCNU: unaffected
[10]; cultured in MET^+ HCY^-
  IC50: 45 to 90 µM
[10]; cultured in MET^- HCY^+
  IC50: 5 to 10 µM

## Nc1nc(OCc2ccccc2)c2[nH]cnc2n1 [O^6 -benzylguanine]
[11]
  increase in the efficacy of alkylating drugs such as BCNU: Significant increase

## CSCC[C@H](N)C(=O)O [methionine]
[12]
  recovery of MGMT activity: 65 % of the base line
[13]
  doubling time after repletion of methionine: 22 h

## N[C@@H](CCSSCC[C@H](N)C(=O)O)C(=O)O [homocystine]
[14]
  CYS: 100 ± 4 µM
  GSH: 56 ± 8 µM
  HCY: 17 ± 2 µM
  MET: 6 ± 2 µM

## Nc1ncn([C@@H]2O[C@H](CO)[C@@H](O)[C@H]2O)c(=O)n1 [5-azacytidine]
[15]
  increase of the MGMT activity: substantial increase

## NC1CCSC1=O (centres unmarked) [homocysteine thiolactone]
[14]
  CYS: 100 ± 13 µM
  GSH: 81 µM
  HCY: 20 ± 3 µM
  MET: 12 ± 3 µM
